In this assay the target is T1, phi29 DNA packaging motor (Bacillus phage phi29, UniProt P11014).
T1 construct: made in house
The assay is classed as biochemical, bacteriophage phi29. Particulars: for inhibition effect in viral assembly: adding 20% of the drugged/mutant component to the wild-type component. The method, then:
(§1) Purified components were subjected to in vitro viral assembly assay as described previously. Briefly, 10 μg of purified procapsids were mixed with 100 ng of pRNA in 5 μl of reaction buffer (10 mM ATP, 6 mM 2-mercaptoethanol, and 3 mM spermidine in TMS buffer) at room temperature for 30 min. Purified DNA-gp3 and gp16 were then added and the reaction mixture was incubated at room temperature for one hour to initiate DNA packaging. Finally, the DNA filled procapsids were incubated with 10 μl of gp8.5-9 extract from E. coli containing plasmid pARgp8.5-9 and 20 μl of gp11-14 extract from E. coli to complete the infectious phage assembly.
The newly assembled infectious viruses were plated with inoculated B. subtilis bacteria Su^+44 cells onto a half LB plate covered with top agar. After 12 hour incubation at 37° C., the viral assembly efficiency (plaque-forming unit, PFU) was calculated by counting the formed plaque numbers.
as §1

Like-named read-outs stand apart in the source and are kept apart here.

T1 sequence (P11014 whole entry): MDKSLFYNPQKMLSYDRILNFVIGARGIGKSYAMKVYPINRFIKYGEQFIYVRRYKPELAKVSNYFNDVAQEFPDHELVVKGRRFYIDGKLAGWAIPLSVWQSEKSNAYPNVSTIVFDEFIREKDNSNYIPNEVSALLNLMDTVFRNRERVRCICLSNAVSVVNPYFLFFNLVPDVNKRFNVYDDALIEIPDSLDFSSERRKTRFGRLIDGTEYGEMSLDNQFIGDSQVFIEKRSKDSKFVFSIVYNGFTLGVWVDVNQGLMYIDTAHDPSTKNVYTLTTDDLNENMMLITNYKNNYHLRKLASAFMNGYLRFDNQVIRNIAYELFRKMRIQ

As to `Nc1ncnc2c1ncn2[C@@H]1O[C@H](COP(=O)(O)OP(=O)(O)OP(O)(O)=S)[C@@H](O)[C@H]1O` [γ-S-ATP], the “inhibition effect in viral assembly” value was “almost completely inhibited”. Moreover, under “listed as gamma-s-ATP”, the “inhibition effect in viral assembly” value is recorded as “nearly completely inhibited”. For the same molecule, where the note is “targets ATP, pRNA, ATPase gp16, DNA with stoichiometry 10000, 6, 6, 1”, the “comparison of virus assembly inhibition effect between drugged components” value is recorded as “strongest inhibition effect”.

The record behind these values is patent US10975412B2, “Method for designing compounds and compositions useful for targeting high stoichiometric complexes to treat conditions, including treatment of viruses, bacteria, and cancers having acquired drug resistance” (priority 2015, dated 2021).
